In ChEMBL document CHEMBL3885881, “DrugMatrix”:

Species: Rattus norvegicus
Test: DrugMatrix - Regimen: Daily Repeat
Type: toxicity, organism-based, Sprague-Dawley
Design: regimen Daily Repeat, gender Male, age 6-8 weeks
Settings: in vivo, po, route oral GAVAGE, vehicle 100 % WATER; for ABSOLUTE BASOPHIL / ABSOLUTE EOSINOPHIL / ABSOLUTE LYMPHOCYTE / ABSOLUTE MONOCYTE / ABSOLUTE SEGMENTED NEUTROPHIL / BASOPHIL / EOSINOPHIL / ERYTHROCYTE COUNT / HEMATOCRIT / HEMOGLOBIN / LEUKOCYTE COUNT / LYMPHOCYTE / MEAN CORPUSCULAR HEMOGLOBIN / MEAN CORPUSCULAR HEMOGLOBIN CONCENTRATION / MEAN CORPUSCULAR VOLUME / MONOCYTE / NEUTROPHIL / NUCLEATED RED BLOOD CELLS / PLATELET COUNT: tissue Blood; for ALANINE AMINOTRANSFERASE / ALBUMIN / ALKALINE PHOSPHATASE / ASPARTATE AMINOTRANSFERASE / BLOOD UREA NITROGEN / CARBON DIOXIDE / CHLORIDE / CHOLESTEROL / CREATINE PHOSPHOKINASE / CREATININE / GLUCOSE / LACTATE DEHYDROGENASE / LIPASE / PHOSPHORUS / POTASSIUM / SODIUM / TOTAL BILIRUBIN / TOTAL PROTEIN / URIC ACID: tissue Plasma
[1] = 30 mg/kg, 120 h, dose level Low, time 5 day
[2] = 3000 mg/kg, 72 h, dose level High, time 3 day
[3] = 3000 mg/kg, 120 h, dose level High, time 5 day

CC1COc2c(N3CCN(C)CC3)c(F)cc3c(=O)c(C(=O)O)cn1c23 (centres undefined) [OFLOXACIN]
ABSOLUTE BASOPHIL [1]: 0 CELLS/uL | ABSOLUTE EOSINOPHIL [1]: 0 CELLS/uL | ABSOLUTE LYMPHOCYTE [1]: 11457 CELLS/uL | ABSOLUTE MONOCYTE [1]: 48.33 CELLS/uL | ABSOLUTE SEGMENTED NEUTROPHIL [1]: 1361.33 CELLS/uL | BASOPHIL [1]: 0% | EOSINOPHIL [1]: 0% | ERYTHROCYTE COUNT [1]: 5.63 x10E6/uL | HEMATOCRIT [1]: 35.6% | HEMOGLOBIN [1]: 14.27 G/DL | LEUKOCYTE COUNT [1]: 12.87 x10E3/uL | LYMPHOCYTE [1]: 89% | MEAN CORPUSCULAR HEMOGLOBIN [1]: 25.37 pg | MEAN CORPUSCULAR HEMOGLOBIN CONCENTRATION [1]: 40.07 G/DL | MEAN CORPUSCULAR VOLUME [1]: 63.23 fL | MONOCYTE [1]: 0.33% | NEUTROPHIL [1]: 10.67% | NUCLEATED RED BLOOD CELLS [1]: 0 /100WBC | PLATELET COUNT [1]: 1227 x10E3/uL | ALANINE AMINOTRANSFERASE [1]: 50 u/L | ALBUMIN [1]: 4.2 G/DL | ALKALINE PHOSPHATASE [1]: 350.67 u/L | ASPARTATE AMINOTRANSFERASE [1]: 79 u/L | BLOOD UREA NITROGEN [1]: 13.67 mg/dL | CARBON DIOXIDE [1]: 33.67 mmol/L | CHLORIDE [1]: 101.33 MEQ/L | CHOLESTEROL [1]: 68.33 mg/dL | CREATINE PHOSPHOKINASE [1]: 179.33 u/L | CREATININE [1]: 0.19 mg/dL | GLUCOSE [1]: 155.67 mg/dL | LACTATE DEHYDROGENASE [1]: 144 u/L | LIPASE [1]: 12.33 u/L | PHOSPHORUS [1]: 11.93 mg/dL | POTASSIUM [1]: 6.45 MEQ/L | SODIUM [1]: 144.3 MEQ/L | TOTAL BILIRUBIN [1]: 0.13 mg/dL | TOTAL PROTEIN [1]: 5.9 G/DL | URIC ACID [1]: 1.4 mg/dL | ABSOLUTE BASOPHIL [2]: 0 CELLS/uL | ABSOLUTE EOSINOPHIL [2]: 96.33 CELLS/uL | ABSOLUTE LYMPHOCYTE [2]: 13060.67 CELLS/uL | ABSOLUTE MONOCYTE [2]: 229.33 CELLS/uL | ABSOLUTE SEGMENTED NEUTROPHIL [2]: 680.33 CELLS/uL | BASOPHIL [2]: 0% | EOSINOPHIL [2]: 0.67% | ERYTHROCYTE COUNT [2]: 5.79 x10E6/uL | HEMATOCRIT [2]: 36.3% | HEMOGLOBIN [2]: 14.37 G/DL | LEUKOCYTE COUNT [2]: 14.07 x10E3/uL | LYMPHOCYTE [2]: 92.67% | MEAN CORPUSCULAR HEMOGLOBIN [2]: 24.83 pg | MEAN CORPUSCULAR HEMOGLOBIN CONCENTRATION [2]: 39.57 G/DL | MEAN CORPUSCULAR VOLUME [2]: 62.7 fL | MONOCYTE [2]: 1.67% | NEUTROPHIL [2]: 5% | NUCLEATED RED BLOOD CELLS [2]: 0 /100WBC | PLATELET COUNT [2]: 1277.33 x10E3/uL | ALANINE AMINOTRANSFERASE [2]: 62.33 u/L | ALBUMIN [2]: 3.93 G/DL | ALKALINE PHOSPHATASE [2]: 286.33 u/L | ASPARTATE AMINOTRANSFERASE [2]: 99.33 u/L | BLOOD UREA NITROGEN [2]: 13.33 mg/dL | CARBON DIOXIDE [2]: 22.33 mmol/L | CHLORIDE [2]: 105.33 MEQ/L | CHOLESTEROL [2]: 67 mg/dL | CREATINE PHOSPHOKINASE [2]: 1225.67 u/L | CREATININE [2]: 0.2 mg/dL | GLUCOSE [2]: 162.33 mg/dL | LACTATE DEHYDROGENASE [2]: 245 u/L | LIPASE [2]: 9.67 u/L | PHOSPHORUS [2]: 11.1 mg/dL | POTASSIUM [2]: 5.42 MEQ/L | SODIUM [2]: 145.2 MEQ/L | TOTAL BILIRUBIN [2]: 0.17 mg/dL | TOTAL PROTEIN [2]: 5.57 G/DL | URIC ACID [2]: 1.57 mg/dL | ABSOLUTE BASOPHIL [3]: 0 CELLS/uL | ABSOLUTE EOSINOPHIL [3]: 0 CELLS/uL | ABSOLUTE LYMPHOCYTE [3]: 16402.33 CELLS/uL | ABSOLUTE MONOCYTE [3]: 44.67 CELLS/uL | ABSOLUTE SEGMENTED NEUTROPHIL [3]: 986.33 CELLS/uL | BASOPHIL [3]: 0% | EOSINOPHIL [3]: 0% | ERYTHROCYTE COUNT [3]: 5.74 x10E6/uL | HEMATOCRIT [3]: 35.4% | HEMOGLOBIN [3]: 14.07 G/DL | LEUKOCYTE COUNT [3]: 17.43 x10E3/uL | LYMPHOCYTE [3]: 93.67% | MEAN CORPUSCULAR HEMOGLOBIN [3]: 24.53 pg | MEAN CORPUSCULAR HEMOGLOBIN CONCENTRATION [3]: 39.73 G/DL | MEAN CORPUSCULAR VOLUME [3]: 61.73 fL | MONOCYTE [3]: 0.33% | NEUTROPHIL [3]: 6% | NUCLEATED RED BLOOD CELLS [3]: 0 /100WBC | PLATELET COUNT [3]: 1340 x10E3/uL | ALANINE AMINOTRANSFERASE [3]: 60.33 u/L | ALBUMIN [3]: 4.17 G/DL | ALKALINE PHOSPHATASE [3]: 195 u/L | ASPARTATE AMINOTRANSFERASE [3]: 83 u/L | BLOOD UREA NITROGEN [3]: 14.33 mg/dL | CARBON DIOXIDE [3]: 27 mmol/L | CHLORIDE [3]: 104.33 MEQ/L | CHOLESTEROL [3]: 67.33 mg/dL | CREATINE PHOSPHOKINASE [3]: 394.67 u/L | CREATININE [3]: 0.22 mg/dL | GLUCOSE [3]: 147.67 mg/dL | LACTATE DEHYDROGENASE [3]: 555.67 u/L | LIPASE [3]: 10 u/L | PHOSPHORUS [3]: 11.37 mg/dL | POTASSIUM [3]: 5.87 MEQ/L | SODIUM [3]: 144.67 MEQ/L | TOTAL BILIRUBIN [3]: 0.13 mg/dL | TOTAL PROTEIN [3]: 5.97 G/DL | URIC ACID [3]: 1.67 mg/dL
